How the values were obtained:
A549 [1] = assay: Growth inhibition of human A549 cells assessed as dead cells at 50 uM after 48 hrs by sulforhodamine-B assay relative to control; format: functional; settings: A549, 48 h, read-out: GI
MCF7 [2] = assay: Growth inhibition of human MCF7 cells assessed as dead cells at 50 uM after 48 hrs by sulforhodamine-B assay relative to control; format: functional; settings: MCF7, 48 h, read-out: GI
HCT-116 [3] = assay: Growth inhibition of human HCT116 cells assessed as dead cells at 50 uM after 48 hrs by sulforhodamine-B assay relative to control; format: functional; settings: HCT-116, 48 h, read-out: GI
THP-1 [4] = assay: Growth inhibition of human THP1 cells assessed as dead cells at 50 uM after 48 hrs by sulforhodamine-B assay relative to control; format: functional; settings: THP-1, 48 h, read-out: GI
THP-1 [5] = assay: Growth inhibition of human THP1 cells assessed as dead cells at 10 uM after 48 hrs by sulforhodamine-B assay relative to control; format: functional; settings: THP-1, 48 h, read-out: GI
HCT-116 [6] = assay: Growth inhibition of human HCT116 cells assessed as dead cells at 10 uM after 48 hrs by sulforhodamine-B assay relative to control; format: functional; settings: HCT-116, 48 h, read-out: GI
MCF7 [7] = assay: Growth inhibition of human MCF7 cells assessed as dead cells at 10 uM after 48 hrs by sulforhodamine-B assay relative to control; format: functional; settings: MCF7, 48 h, read-out: GI
A549 [8] = assay: Growth inhibition of human A549 cells assessed as dead cells at 10 uM after 48 hrs by sulforhodamine-B assay relative to control; format: functional; settings: A549, 48 h, read-out: GI
[9] = Growth inhibition of human FR2 cells after 48 hrs by sulforhodamine-B assay; format: cell-based; settings: FR2, 48 h
THP-1 [10] = assay: Growth inhibition of human THP1 cells after 48 hrs by sulforhodamine-B assay; format: functional, cell-based; settings: THP-1, 48 h
MCF7 [11] = assay: Growth inhibition of human MCF7 cells after 48 hrs by sulforhodamine-B assay; format: functional, cell-based; settings: MCF7, 48 h
HCT-116 [12] = assay: Growth inhibition of human HCT116 cells after 48 hrs by sulforhodamine-B assay; format: functional, cell-based; settings: HCT-116, 48 h
A549 [13] = assay: Growth inhibition of human A549 cells after 48 hrs by sulforhodamine-B assay; format: functional, cell-based; settings: A549, 48 h
[14] = Growth inhibition of human FR2 cells assessed as dead cells at 10 uM after 48 hrs by sulforhodamine-B assay relative to control; format: cell-based; settings: read-out: GI
[15] = Growth inhibition of human FR2 cells assessed as dead cells at 50 uM after 48 hrs by sulforhodamine-B assay relative to control; format: cell-based; settings: read-out: GI

SMILES | inhibition of growth at 50 µM (A549 [1]) [%] | inhibition of growth at 50 µM (MCF7 [2]) [%] | inhibition of growth at 50 µM (HCT-116 [3]) [%] | inhibition of growth at 50 µM (THP-1 [4]) [%] | inhibition of growth at 10 µM (THP-1 [5]) [%] | inhibition of growth at 10 µM (HCT-116 [6]) [%] | inhibition of growth at 10 µM (MCF7 [7]) [%] | inhibition of growth at 10 µM (A549 [8]) [%] | IC50 [9] [µM] | IC50 (THP-1 [10]) [µM] | IC50 (MCF7 [11]) [µM] | IC50 (HCT-116 [12]) [µM] | IC50 (A549 [13]) [µM] | inhibition at 48 h, 10 µM [14] [%] | inhibition at 48 h, 50 µM [15] [%]
C[C@H]1[C@H](C)CC[C@]2(C(=O)OCc3cn(-c4ccc(C(F)(F)F)cc4)nn3)CC[C@]3(C)C(=CC[C@@H]4[C@@]5(C)CCC(=O)C(C)(C)[C@@H]5CC[C@]43C)[C@H]12 | 30 | 3 | 16 | 27 | – | – | – | – | – | – | – | – | – | – | –
C[C@H]1[C@H](C)CC[C@]2(C(=O)OCc3cn(-c4cccc5ccccc45)nn3)CC[C@]3(C)C(=CC[C@@H]4[C@@]5(C)CCC(=O)C(C)(C)[C@@H]5CC[C@]43C)[C@H]12 | 50 | 80 | 76 | 75 | 47 | 2 | 40 | 27 | – | – | – | – | – | – | –
C[C@H]1[C@H](C)CC[C@]2(C(=O)OCc3cn(-c4ccccc4Br)nn3)CC[C@]3(C)C(=CC[C@@H]4[C@@]5(C)CCC(=O)C(C)(C)[C@@H]5CC[C@]43C)[C@H]12 | 99 | 99 | 99 | 99 | 92 | 41 | 80 | 85 | 69 | < 0.1 | < 0.1 | 15 | 2.9 | 2 | 99
C[C@H]1[C@H](C)CC[C@]2(C(=O)OCc3cn(-c4ccc(CC#N)cc4)nn3)CC[C@]3(C)C(=CC[C@@H]4[C@@]5(C)CCC(=O)C(C)(C)[C@@H]5CC[C@]43C)[C@H]12 | 26 | 34 | 67 | 55 | 32 | 44 | 17 | 13 | 46 | 37 | 79 | 19 | > 100 | 14 | 46
C[C@H]1[C@H](C)CC[C@]2(C(=O)OCc3cn(-c4ccc(Cl)cc4)nn3)CC[C@]3(C)C(=CC[C@@H]4[C@@]5(C)CCC(=O)C(C)(C)[C@@H]5CC[C@]43C)[C@H]12 | 26 | 52 | 49 | 9 | – | – | – | – | – | – | – | – | – | – | –
C[C@H]1[C@H](C)CC[C@]2(C(=O)OCc3cn(-c4ccccc4F)nn3)CC[C@]3(C)C(=CC[C@@H]4[C@@]5(C)CCC(=O)C(C)(C)[C@@H]5CC[C@]43C)[C@H]12 | 18 | 15 | 12 | 49 | – | – | – | – | – | – | – | – | – | – | –
C[C@H]1[C@H](C)CC[C@]2(C(=O)OCc3cn(-c4ccccc4I)nn3)CC[C@]3(C)C(=CC[C@@H]4[C@@]5(C)CCC(=O)C(C)(C)[C@@H]5CC[C@]43C)[C@H]12 | 67 | 76 | 78 | 79 | 56 | 44 | 54 | 43 | 35 | 9.4 | 13 | 15 | 19 | 36 | 56
C[C@H]1[C@H](C)CC[C@]2(C(=O)OCc3cn(-c4ccccc4C(F)(F)F)nn3)CC[C@]3(C)C(=CC[C@@H]4[C@@]5(C)CCC(=O)C(C)(C)[C@@H]5CC[C@]43C)[C@H]12 | 46 | 4 | 23 | 73 | – | – | – | – | – | – | – | – | – | – | –
C[C@H]1[C@H](C)CC[C@]2(C(=O)OCc3cn(-c4cccc(Br)c4)nn3)CC[C@]3(C)C(=CC[C@@H]4[C@@]5(C)CCC(=O)C(C)(C)[C@@H]5CC[C@]43C)[C@H]12 | 16 | 3 | 10 | 32 | – | – | – | – | – | – | – | – | – | – | –
C[C@H]1[C@H](C)CC[C@]2(C(=O)OCc3cn(-c4ccc(F)cc4)nn3)CC[C@]3(C)C(=CC[C@@H]4[C@@]5(C)CCC(=O)C(C)(C)[C@@H]5CC[C@]43C)[C@H]12 | 3 | 4 | 3 | 2 | – | – | – | – | – | – | – | – | – | – | –
C[C@H]1[C@H](C)CC[C@]2(C(=O)OCc3cn(-c4ccc(I)cc4)nn3)CC[C@]3(C)C(=CC[C@@H]4[C@@]5(C)CCC(=O)C(C)(C)[C@@H]5CC[C@]43C)[C@H]12 | 2 | 82 | 8 | 1 | – | – | – | – | – | – | – | – | – | – | –
COc1ccccc1-n1cc(COC(=O)[C@]23CC[C@@H](C)[C@H](C)[C@H]2C2=CC[C@@H]4[C@@]5(C)CCC(=O)C(C)(C)[C@@H]5CC[C@@]4(C)[C@]2(C)CC3)nn1 | 94 | 91 | 94 | 93 | 82 | 77 | 87 | 79 | > 50 | < 0.1 | < 0.1 | 0.3 | < 0.1 | 5 | 28
C[C@H]1[C@H](C)CC[C@]2(C(=O)OCc3cn(-c4ccccc4[N+](=O)[O-])nn3)CC[C@]3(C)C(=CC[C@@H]4[C@@]5(C)CCC(=O)C(C)(C)[C@@H]5CC[C@]43C)[C@H]12 | 39 | 42 | 65 | 54 | 24 | 45 | 4 | 3 | > 50 | 48 | > 50 | 14 | > 50 | 9 | 12
C[C@H]1[C@H](C)CC[C@]2(C(=O)OCc3cn(-c4ccccc4Cl)nn3)CC[C@]3(C)C(=CC[C@@H]4[C@@]5(C)CCC(=O)C(C)(C)[C@@H]5CC[C@]43C)[C@H]12 | 91 | 95 | 93 | 96 | 80 | 54 | 81 | 77 | > 50 | < 0.1 | < 0.1 | 9.1 | 0.15 | 9 | 35

From ChEMBL document CHEMBL2413076, “Synthesis and biological evaluation of ursolic acid-triazolyl derivatives as potential anti-cancer agents” (Eur J Med Chem, 2013)
